Results published in US20200062789A1, “HYDROXAMIC ACID PRODRUG COMPOUND OR SALT THEREOF, LYOPHILIZED FORMULATION, LPXC INHIBITOR, AND ANTIBACTERIAL AGENT” (FUJIFILM Toyama Chemical Co., Ltd., priority 2017, published 2020).

Tests used:
[1] = system: Pseudomonas aeruginosa (S-2838 strain); experiment: Multidrug-resistant Pseudomonas aeruginosa urinary tract infection model test in mice; assay type: in vivo; conditions: ICR female mice, 25 mg/kg once by tail vein 2 hours after infection, kidney count on the day after infection
Protocol: The mice used were ICR female SPF mice (5 weeks old: 5 mice per group). The inoculum solution was prepared by suspending a clinical isolate of Pseudomonas aeruginosa (S-2838 strain) cultured overnight at 37° C. on a Mueller-Hinton agar plate in sterile saline. The infection was induced by inoculating 0.2 mL (about 10^3 CFU/mouse) of the inoculum solution into the urethra of each mouse. The test compound was dissolved in sterile saline and given once by tail vein administration 2 hours after infection. The count of viable cells in the kidney on the day after infection was recorded and the mean value was calculated.

[2] = Stability in 100 mmol/L tris-hydrochloric acid buffer (pH 7.4); assay type: physicochemical; conditions: compared to Example 1
[3] = Solubility test (visual dissolution in physiological saline; saturated solubility); assay type: physicochemical; conditions: saline or isotonic, thermodynamic from solid, 1.2 mg taken, dissolution confirmed visually
Protocol: The compounds of Examples 1 and 2 were taken in an amount of 1.2 mg, physiological saline was added during stirring until dissolution could be confirmed visually, and the solubility was calculated.

Row | Compound | solubility [3] [mg/mL] | further results
1 | CNC(=O)[C@@](C)(C(=O)NO)N(C)C(=O)c1ccc(C#Cc2ccc([C@H](O)COP(=O)(O)O)cc2)cc1 [Comparative Example 1, (S)-2-hydroxy-2-(4-((4-(((S)-1-(hydroxyamino)-2-methyl-3-(methylamino)-1,3-dioxopropan-2-yl)(methyl)carbamoyl)phenyl)ethynyl)phenyl)ethyl phosphate] | – | decrease of count of viable cells in the kidney compared with control group [1]: < 4 log CFU/kidney
2 | CNC(=O)[C@@](C)(C(=O)NOC(=O)CCC(=O)O)N(C)C(=O)c1ccc(C#Cc2ccc([C@H](O)CO)cc2)cc1 [Comparative Example 2, 4-(((S)-2-(4-((4-((S)-1,2-dihydroxyethyl)phenyl)ethynyl)-N-methylbenzamide)-2-methy 1-3-(methylamino)-3-oxopropanamide)oxy)-4-oxobutanoic acid] | – | stability in buffer (decomposition to compound A) [2]: easily decomposed
3 | CNC(=O)[C@@](C)(C(=O)NOP(=O)(O)O)N(C)C(=O)c1ccc(C#Cc2ccc([C@H](O)CO)cc2)cc1 [Example 1, (((S)-2-(4-((4-((S)-1,2-dihydroxyethyl)phenyl)ethynyl)-N-methylbenzamide)-2-methyl-3-(methylamino)-3-oxopropanamide)oxy)phosphonic acid] | > 100 | –
4 | CNC(=O)[C@@](C)(C(=O)NOCOP(=O)(O)O)N(C)C(=O)c1ccc(C#Cc2ccc([C@H](O)CO)cc2)cc1 [Example 2, (((S)-2-(4-((4-((S)-1,2-dihydroxyethyl)phenyl)ethynyl)-N-methylbenzamide)-2-methyl-3-(methylamino)-3-oxopropanamide)oxy)methyl dihydrogen phosphate] | > 100 | –
